We go through ten compounds from patent publication US20240300945A1, “CLY SERIES COMPOUND, PREPARATION METHOD THEREFOR AND USE THEREOF IN PREPARATION OF DRUGS” (NANJING WELLBEST PHARMACEUTICAL CO., LTD, priority 2021, published 2024).

One experiment concerns mouse eczema model. Description: Mouse eczema model: ear thickness. The settings on record: after modeling, 14th day; 0.1% cream for external use twice a day, 10 days (positive: aloxone). The experiment is classed as in vivo, C57BL/6 mice. The text has this:
Preparation method of CLY cream: the matrix components included methyl silicone oil (15%), stearic acid (6%), white vaseline (5%), liquid paraffin (5%), octadecanol (5%), glycerin (20%), alkyl aryl polyglycol ether (1%), fatty alcohol polyoxyethylene ether (1%), Tween-807 (1%), ethyl paraben (0.1%), distilled water (about 31-55%), and it was mixed with an appropriate amount of CLY series compound liquid to form a mixed emulsion. The cream matrix used in this embodiment refers to the matrix components after the active ingredients were removed from the cream.
(§1) SPF grade female C57BL/6 mice were purchased at the age of 8 weeks (0.02 kg), 6 in each group, and randomly divided into the blank control group, model group, positive drug group, CLY-1 treatment group (0.1% CLY-1 cream for external use), CLY-2 treatment group (0.1% CLY-2 cream for external use), CLY-3 treatment group (0.1% CLY-3 cream for external use), CLY-4 treatment group (0.1% CLY-4 cream for external use), CLY-8 treatment group (0.1% CLY-8 cream for external use), CLY-11 treatment group (0.1% CLY-11 cream for external use) CLY-19 treatment group (0.1% CLY-19 cream for external use), CLY-36 treatment group (0.1% CLY-36 cream for external use) and CLY-39 treatment group (0.1% CLY-39 cream for external use).
(§2) Model establishment: the normal control group mice were smeared with 75% ethanol 14.3 ul on both ears, while the model group, positive drug group and treatment group were smeared with 1 nmol/L carpotriol liniment 14.3 ul on both ears at a regular time every day, and then smeared with 20 g/L OVA 25 ul after air drying, once a day, for 12 days to make a model.
(§3) From 4 days after the start of modeling, applied the cream matrix on the ear skin of mice in the blank control group and the model group, applied aloxone on the ear skin of mice in the positive drug group, and applied the treatment cream on the ear skin of mice in each treatment group respectively, twice a day in the morning and evening, for 10 consecutive days, took photos every day, and recorded scores.
(§4) The thickness of mouse auricle was measured and recorded with ear thickness measuring instrument before and on the 14th day respectively. After the measurement on the 14th day, the mice were sacrificed. Blood was taken and serum was separated.

In a further experiment the test system is serum IL-4. Description: Mouse eczema model: serum IL-4 (ELISA). It is filed as in vivo, C57BL/6 mice. The settings on record: after modeling, 0.1% cream for external use twice a day, 10 days (positive: aloxone).
Source text: as §1, §2, §3, §4
The enzyme-labeled plate was coated with rabbit anti-mouse interleukin (IL)-4 antibody, stayed at 4° C. overnight, and the reaction was stopped according to the instructions of the ELISA kit to detect the level of serum IL-4. ELISA kits were all purchased from Raybiotech, USA.
(In an ELISA, binding on a coated surface is turned into a signal by an enzyme label.)

The test system of another experiment is skin melanocytes. The experiment in a line: Chloasma model of guinea pig: pathomorphological observation of skin melanocytes. Particulars: 0.25% cream once a day, 30 days. Details: Average gray level (melanocyte depth): scale not given here. The experiment is classed as in vivo. The text has this:
According to the body weight, they were randomly divided into the model control group (applied cream matrix), blank control group (applied cream matrix), CLY-1 treatment group (applied 0.25% CLY-1 cream on the skin), CLY-2 treatment group (0.25% CLY-2 cream on the skin), CLY-3 treatment group (0.25% CLY-3 cream on the skin), CLY-4 treatment group (0.25% CLY-4 cream on the skin), CLY-5 treatment group (0.25% CLY-5 cream on the skin) CLY-8 treatment group (0.25% CLY-8 cream on the skin), CLY-11 treatment group (0.25% CLY-11 cream on the skin), CLY-19 treatment group (0.25% CLY-19 cream on the skin), CLY-36 treatment group (0.25% CLY-36 cream on the skin), CLY-39 treatment group (0.25% CLY-39 cream on the skin), positive treatment group (0.25% arbutin cream on the skin), 6 in each group. In addition to the blank control group, all guinea pigs in the other groups were injected with 20 mg/ml progesterone injection (7.5 mg/kg) into the muscle at the root of the hind leg, once a day, for 30 consecutive days to establish the chloasma model. […] After modeling, the guinea pigs in the model control group, blank control group, each CLY series treatment group, and positive treatment group were treated with corresponding cream on the back for intervention, once a day, for 30 consecutive days.
Took 1 piece of spare skin tissue from each of all guinea pigs, about 2 cm×1 cm, 10% paraformaldehyde fixation, pathological tissue detection, immunohistochemical staining, observation of melanocyte staining and number, and judgment of positive cells according to the literature: none, 0 point<15%, 0.5 points<30%, 1 point; >30%, 2 points. Observed 5 visual fields in each slice, found out the positive target with brown reaction in the cytoplasm of skin epidermis and accessory epithelial cells, and used BX50F4 Beihang pathological image analysis system for quantitative analysis to obtain the average area, the ratio of target area to statistical field area (areal density), the ratio of target number to statistical field area (number density), the average gray level, the average optical density and the integrated optical density of each guinea pig's 5 visual fields of melanin positive target.
SPSS16.0 software was used for statistics. The measurement data were expressed by mean±standard deviation (x±s). The comparison between multiple groups was performed by one-way ANOVA, and the comparison between groups was performed by t-test. P<0.05 was statistically significant.

`CN1CCC[C@@H](N(C(=O)c2ccc(-n3nnc4cccnc43)cc2)c2ncccc2Cl)C1` [CLY-1, (R)-4-(3H-[1,2,3]triazolo[4,5-b]pyridin-3-yl)-N-(3-chloropyridin-2-yl)-N-(1-methylpiperidin-3-yl)benzamide]: the Ear thickness in the experiment with mouse eczema model turned out to be 0.251 mm. Also, the “IL-4 level in peripheral blood” value in the experiment on serum IL-4 was 6.76 pg/mL. Moreover, in the experiment on skin melanocytes, the “Area density of melanocytes” value turned out to be 0.005 ± 0.002, the Area of melanocytes stood at 372.31 ± 58.32 um2, the “Average gray level (melanocyte depth)” value is 0.43 ± 0.07 and the “Average optical density (melanocyte depth)” value (shortened to “Average optical density”) is recorded as 11.23 ± 1.21. In the experiment on skin melanocytes, the “Integrated optical density (melanocyte depth)” value (shortened to “Integrated optical density”) is 103.34 ± 9.71, the “Number density of melanocytes” value is given as 1.91 ± 0.96 and the Number of melanocytes amounted to 1.93 ± 0.55.

Regarding `CCN1CCC[C@@H](N(C(=O)c2ccc(-n3nnc4cccnc43)cc2)c2ncccc2Cl)C1` [CLY-2, (R)-4-(3H-[1,2,3]triazolo[4,5-b]pyridin-3-yl)-N-(3-chloropyridin-2-yl)-N-(1-ethylpiperidin-3-yl)benzamide], the Ear thickness with mouse eczema model amounted to 0.246 mm. Further, in the experiment on serum IL-4, the “IL-4 level in peripheral blood” value is 5.58 pg/mL. Moreover, in the experiment with skin melanocytes, the “Area density of melanocytes” value is recorded as 0.004 ± 0.002, the Area of melanocytes worked out at 366.26 ± 62.15 um2, the “Average gray level (melanocyte depth)” value was determined as 0.41 ± 0.06 and the “Average optical density” value came out at 10.68 ± 1.18. In the experiment with skin melanocytes, the “Integrated optical density” value was determined as 106.96 ± 9.84, the “Number density of melanocytes” value is on record as 1.88 ± 1.34 and the Number of melanocytes is on record as 1.75 ± 0.53.

Regarding `CNC1CCCC(N(C(=O)c2ccc(-n3nnc4cccnc43)cc2)c2ncccc2Cl)C1` (stereo not shown) [CLY-3], the Ear thickness in the experiment on mouse eczema model stood at 0.297 mm. Besides, the “IL-4 level in peripheral blood” value in the experiment on serum IL-4 was 7.32 pg/mL. Besides, in the experiment on skin melanocytes, the “Area density of melanocytes” value is reported as 0.008 ± 0.003, the Area of melanocytes is 436.32 ± 79.12 um2, the “Average gray level (melanocyte depth)” value is 0.52 ± 0.08 and the “Average optical density” value stood at 11.42 ± 1.32. In the experiment with skin melanocytes, the “Integrated optical density” value amounted to 95.36 ± 9.86, the “Number density of melanocytes” value turned out to be 2.82 ± 1.25 and the Number of melanocytes amounted to 2.13 ± 0.61.

In the experiment with mouse eczema model, `O=C(c1ccc(-n2nnc3cccnc32)cc1)N(c1ncccc1Cl)C1CCCC(O)C1` (stereo not shown) [CLY-4] came in with an Ear thickness of 0.323 mm. Also, the “IL-4 level in peripheral blood” value in the experiment with serum IL-4 was determined as 7.51 pg/mL. Further, in the experiment on skin melanocytes, the “Area density of melanocytes” value was 0.009 ± 0.003, the Area of melanocytes was 496.56 ± 86.23 um2, the “Average gray level (melanocyte depth)” value was 0.58 ± 0.09 and the “Average optical density” value was 11.61 ± 1.38. In the experiment with skin melanocytes, the “Integrated optical density” value is given as 92.45 ± 9.36, the “Number density of melanocytes” value is 2.95 ± 1.41 and the Number of melanocytes was found to be 2.45 ± 0.67.

Regarding `COC1CCCC(N(C(=O)c2ccc(-n3nnc4cccnc43)cc2)c2ncccc2Cl)C1` (stereo not shown) [CLY-5], in the experiment with skin melanocytes, the “Area density of melanocytes” value worked out at 0.004 ± 0.001, the Area of melanocytes is on record as 345.31 ± 56.21 um2, the “Average gray level (melanocyte depth)” value was 0.40 ± 0.05 and the “Average optical density” value came to 10.59 ± 1.13. In the experiment with skin melanocytes, the “Integrated optical density” value is listed as 107.06 ± 9.57, the “Number density of melanocytes” value was 1.75 ± 1.29 and the Number of melanocytes was 1.43 ± 0.32.

`O=C(c1ccc(-n2nnc3cccnc32)cc1)N(c1ncccc1Cl)[C@@H]1CCNC1` [CLY-8, (R)-4-(3H-[1,2,3]triazolo[4,5-b]pyridin-3-yl)-N-(3-chloropyridin-2-yl)-N-(pyrrolidin-3-yl)benzamide] returned an Ear thickness with mouse eczema model of 0.245 mm. Moreover, in the experiment with serum IL-4, the “IL-4 level in peripheral blood” value is 5.53 pg/mL. For the same compound, in the experiment on skin melanocytes, the “Area density of melanocytes” value came to 0.003 ± 0.001, the Area of melanocytes was 341.26 ± 54.82 um2, the “Average gray level (melanocyte depth)” value is 0.39 ± 0.04 and the “Average optical density” value stood at 10.48 ± 1.11. Further, in the experiment with skin melanocytes, the “Integrated optical density” value is listed as 103.15 ± 9.52, the “Number density of melanocytes” value is 1.71 ± 1.26 and the Number of melanocytes is 1.36 ± 0.29.

`NC1CCCC(N(C(=O)c2ccc(-n3nnc4cccnc43)cc2)c2ncccc2Cl)C1` (stereo not shown) [CLY-11] showed an Ear thickness with mouse eczema model of 0.278 mm. The “IL-4 level in peripheral blood” value in the experiment on serum IL-4 amounted to 6.45 pg/mL. Also, in the experiment with skin melanocytes, the “Area density of melanocytes” value is listed as 0.006 ± 0.002, the Area of melanocytes was determined as 417.53 ± 73.16 um2, the “Average gray level (melanocyte depth)” value is recorded as 0.46 ± 0.06 and the “Average optical density” value was 11.26 ± 1.22. Further, in the experiment on skin melanocytes, the “Integrated optical density” value came out at 101.38 ± 9.92, the “Number density of melanocytes” value stood at 2.16 ± 1.38 and the Number of melanocytes was found to be 1.98 ± 0.56.

With `O=C(c1ccc(-c2ccccc2-c2nnn[nH]2)cc1)N(c1ncccc1Cl)[C@@H]1CCCNC1` [CLY-19], in the experiment on mouse eczema model, the Ear thickness is 0.253 mm. Besides, in the experiment with serum IL-4, the “IL-4 level in peripheral blood” value was found to be 5.72 pg/mL. Besides, in the experiment on skin melanocytes, the “Area density of melanocytes” value is recorded as 0.006 ± 0.003, the Area of melanocytes is reported as 405.62 ± 73.45 um2, the “Average gray level (melanocyte depth)” value is recorded as 0.45 ± 0.06 and the “Average optical density” value worked out at 11.28 ± 1.24. Moreover, in the experiment on skin melanocytes, the “Integrated optical density” value was 102.65 ± 9.97, the “Number density of melanocytes” value came out at 2.18 ± 1.35 and the Number of melanocytes is 1.95 ± 0.52.

Turning to `O=C(c1ccc(-c2ccccc2Cl)cc1)N(c1ncccc1Cl)[C@@H]1CCCNC1` [CLY-36], in the experiment with mouse eczema model, the Ear thickness was determined as 0.248 mm. Also, the “IL-4 level in peripheral blood” value with serum IL-4 was 5.86 pg/mL. In addition, in the experiment with skin melanocytes, the “Area density of melanocytes” value amounted to 0.007 ± 0.004, the Area of melanocytes is 495.32 ± 79.43 um2, the “Average gray level (melanocyte depth)” value was determined as 0.47 ± 0.07 and the “Average optical density” value is on record as 11.53 ± 1.22. Further, in the experiment with skin melanocytes, the “Integrated optical density” value is recorded as 97.62 ± 9.91, the “Number density of melanocytes” value turned out to be 2.67 ± 1.38 and the Number of melanocytes was 1.98 ± 0.59.

On to `Nc1ccccc1-c1ccc(C(=O)N(c2ncccc2Cl)[C@@H]2CCCNC2)cc1` [CLY-39], for which, in the experiment with mouse eczema model, the Ear thickness is 0.246 mm. Besides, the “IL-4 level in peripheral blood” value in the experiment on serum IL-4 is 5.75 pg/mL. For the same compound, in the experiment on skin melanocytes, the “Area density of melanocytes” value was 0.006 ± 0.003, the Area of melanocytes is on record as 458.06 ± 76.32 um2, the “Average gray level (melanocyte depth)” value worked out at 0.47 ± 0.07 and the “Average optical density” value is 11.06 ± 1.17. For the same compound, in the experiment on skin melanocytes, the “Integrated optical density” value is reported as 101.36 ± 9.72, the “Number density of melanocytes” value was determined as 2.03 ± 1.24 and the Number of melanocytes is recorded as 1.39 ± 0.32.
